Test results: patent publication US7968526B2, “Antisense oligonucleotides directed to ribonucleotide reductase R2 and uses thereof in the treatment of cancer” (Lorus Therapeutics Inc., priority 2003, dated 2011)

Columns and labels:
[1] = test system: CB7 Friend retrovirus-induced mouse Erythroleukaemia cells; experiment: Survival of SCID mice bearing mouse erythroleukaemia (CB7); assay type: in vivo; conditions: 10 mg/kg i.v. every second day, stopped at day 71, untreated all died within 36 days
[2] = Tissue distribution in the rat (CE method); assay type: in vivo
Procedure: The toxicokinetics and tissue distribution of SEQ ID NO:1 (and related oligonucleotide metabolites obtained from exonuclease-mediated chain shortening) were determined in rats and monkeys. In addition to investigating the pharmacokinetics and tissue distribution of SEQ ID NO:1, the purpose of the studies was to correlate adverse effects in the animal studies to the concentrations of SEQ ID NO:1 (and metabolites) in tissue and blood. A capillary electrophoresis (CE) method was used to measure the concentrations of SEQ ID NO:1 (and metabolites) in plasma and tissues.
The concentrations of SEQ ID NO:1 (and related n+1, n−1 to n−15 oligonucleotide metabolites) in the following rat and monkey tissues were measured by a validated CE method (Southwest Bio-Labs, Inc.): kidney, liver, spleen, heart, lung, bone marrow (rat), lymph nodes (monkey) and brain tissues. The tissue samples were collected from the designated animals as described in the 21-day toxicity studies: rats, administered bolus intravenous injections of SEQ ID NO:1 every other day at 2, 10, or 50 mg/kg; and monkeys administered SEQ ID NO:1 by continuous intravenous infusion at 2, 10, or 50 mg/kg/day.

[3] = 2 mg/kg bolus i.v. every other day, 4 hrs post first dose
[4] = 2 mg/kg bolus i.v. every other day, 4 hrs post last dose
[5] = 2 mg/kg bolus i.v. every other day, 48 hrs post first dose
[6] = 10 mg/kg bolus i.v. every other day, 4 hrs post first dose
[7] = 10 mg/kg bolus i.v. every other day, 4 hrs post last dose

Q: With “5′-GGCTAAATCGCTCCACCAAG-3′ (all phosphorothioate, sugars by position and methylation of C not given here) [SEQ ID NO: 1, fully phosphorothioated antisense oligonucleotide that hybridizes to the coding region of R2 mRNA]” as the substance, how does the Survival of mice [1] read?
A: survived beyond day 71 except one mouse, which died at day 22

Q: What about the “Rank order of tissue concentrations” value [2] of the same substance?
A: kidney>liver>bone marrow>spleen>heart>lung

Q: What about the “Mean Concentration SEQ ID NO: 1, Bone Marrow” value [2, 3] of the same substance?
A: BDL (below detectable limits (1 μg/g rat; 0.2 μg/g monkey))

Q: And the “Mean Concentration SEQ ID NO: 1, Brain” value [2, 3]?
A: BDL (below detectable limits (1 μg/g rat; 0.2 μg/g monkey))

Q: And the “Mean Concentration SEQ ID NO: 1, Heart” value [2, 3]?
A: 0.8 µg/g

Q: What about the “Mean Concentration SEQ ID NO: 1, Kidney” value [2, 3] of the same substance?
A: 6.7 µg/g

Q: And the “Mean Concentration SEQ ID NO: 1, Liver” value [2, 3]?
A: 6.9 µg/g

Q: And the “Mean Concentration SEQ ID NO: 1, Lung” value [2, 3]?
A: BDL (below detectable limits (1 μg/g rat; 0.2 μg/g monkey))

Q: What about the “Mean Concentration SEQ ID NO: 1, Spleen” value [2, 3] of the same substance?
A: 1.0 µg/g

Q: And the “Mean Concentration total metabolites (n + 1 through n − 13), Bone Marrow” value [2, 3]?
A: BDL (below detectable limits (1 μg/g rat; 0.2 μg/g monkey))

Q: And the “Mean Concentration total metabolites (n + 1 through n − 13), Brain” value (shortened to “Mean Concentration total metabolites … Brain”) [2, 3]?
A: BDL (below detectable limits (1 μg/g rat; 0.2 μg/g monkey))

Q: What about the “Mean Concentration total metabolites (n + 1 through n − 13), Heart” value (shortened to “Mean Concentration total metabolites … Heart”) [2, 3] of the same substance?
A: 0.3 µg/g

Q: And the “Mean Concentration total metabolites (n + 1 through n − 13), Kidney” value (shortened to “Mean Concentration total metabolites … Kidney”) [2, 3]?
A: 20.8 µg/g

Q: And the “Mean Concentration total metabolites (n + 1 through n − 13), Liver” value (“Mean Concentration total metabolites … Liver” below) [2, 3]?
A: 16.9 µg/g

Q: And the “Mean Concentration total metabolites (n + 1 through n − 13), Lung” value (“Mean Concentration total metabolites … Lung” for short) [2, 3]?
A: BDL (below detectable limits (1 μg/g rat; 0.2 μg/g monkey))

Q: What about the “Mean Concentration total metabolites (n + 1 through n − 13), Spleen” value (“Mean Concentration total metabolites … Spleen” for short) [2, 3] of the same substance?
A: 1.2 µg/g

Q: What about the “Mean Concentration SEQ ID NO: 1, Bone Marrow” value [2, 4] of the same substance?
A: 1.8 µg/g

Q: What about the “Mean Concentration SEQ ID NO: 1, Brain” value [2, 4] of the same substance?
A: BDL (below detectable limits (1 μg/g rat; 0.2 μg/g monkey))

Q: What about the “Mean Concentration SEQ ID NO: 1, Heart” value [2, 4] of the same substance?
A: BDL (below detectable limits (1 μg/g rat; 0.2 μg/g monkey))

Q: And the “Mean Concentration SEQ ID NO: 1, Kidney” value [2, 4]?
A: 28.0 µg/g

Q: And the “Mean Concentration SEQ ID NO: 1, Liver” value [2, 4]?
A: 13.8 µg/g

Q: What about the “Mean Concentration SEQ ID NO: 1, Lung” value [2, 4] of the same substance?
A: 0.9 µg/g

Q: What about the “Mean Concentration SEQ ID NO: 1, Spleen” value [2, 4] of the same substance?
A: 1.8 µg/g

Q: What about the “Mean Concentration total metabolites (n + 1 through n − 13), Bone Marrow” value [2, 4] of the same substance?
A: 3.8 µg/g

Q: And the “Mean Concentration total metabolites … Brain” value [2, 4]?
A: BDL (below detectable limits (1 μg/g rat; 0.2 μg/g monkey))

Q: And the “Mean Concentration total metabolites … Heart” value [2, 4]?
A: BDL (below detectable limits (1 μg/g rat; 0.2 μg/g monkey))

Q: What about the “Mean Concentration total metabolites … Kidney” value [2, 4] of the same substance?
A: 122.8 µg/g

Q: And the “Mean Concentration total metabolites … Liver” value [2, 4]?
A: 42.1 µg/g

Q: What about the “Mean Concentration total metabolites … Lung” value [2, 4] of the same substance?
A: 0.2 µg/g

Q: And the “Mean Concentration total metabolites … Spleen” value [2, 4]?
A: 6.5 µg/g

Q: What about the “Mean Concentration SEQ ID NO: 1, Bone Marrow” value [2, 5] of the same substance?
A: BDL (below detectable limits (1 μg/g rat; 0.2 μg/g monkey))

Q: What about the “Mean Concentration SEQ ID NO: 1, Brain” value [2, 5] of the same substance?
A: BDL (below detectable limits (1 μg/g rat; 0.2 μg/g monkey))

Q: What about the “Mean Concentration SEQ ID NO: 1, Heart” value [2, 5] of the same substance?
A: BDL (below detectable limits (1 μg/g rat; 0.2 μg/g monkey))

Q: What about the “Mean Concentration SEQ ID NO: 1, Kidney” value [2, 5] of the same substance?
A: 1.0 µg/g

Q: And the “Mean Concentration SEQ ID NO: 1, Liver” value [2, 5]?
A: BDL (below detectable limits (1 μg/g rat; 0.2 μg/g monkey))

Q: And the “Mean Concentration SEQ ID NO: 1, Lung” value [2, 5]?
A: BDL (below detectable limits (1 μg/g rat; 0.2 μg/g monkey))

Q: And the “Mean Concentration SEQ ID NO: 1, Spleen” value [2, 5]?
A: BDL (below detectable limits (1 μg/g rat; 0.2 μg/g monkey))

Q: What about the “Mean Concentration total metabolites (n + 1 through n − 13), Bone Marrow” value [2, 5] of the same substance?
A: BDL (below detectable limits (1 μg/g rat; 0.2 μg/g monkey))

Q: What about the “Mean Concentration total metabolites … Brain” value [2, 5] of the same substance?
A: BDL (below detectable limits (1 μg/g rat; 0.2 μg/g monkey))

Q: What about the “Mean Concentration total metabolites … Heart” value [2, 5] of the same substance?
A: BDL (below detectable limits (1 μg/g rat; 0.2 μg/g monkey))

Q: What about the “Mean Concentration total metabolites … Kidney” value [2, 5] of the same substance?
A: 3.6 µg/g

Q: And the “Mean Concentration total metabolites … Liver” value [2, 5]?
A: BDL (below detectable limits (1 μg/g rat; 0.2 μg/g monkey))

Q: And the “Mean Concentration total metabolites … Lung” value [2, 5]?
A: BDL (below detectable limits (1 μg/g rat; 0.2 μg/g monkey))

Q: And the “Mean Concentration total metabolites … Spleen” value [2, 5]?
A: BDL (below detectable limits (1 μg/g rat; 0.2 μg/g monkey))

Q: What about the “Mean Concentration SEQ ID NO: 1, Bone Marrow” value [2, 6] of the same substance?
A: 2.7 µg/g

Q: And the “Mean Concentration SEQ ID NO: 1, Brain” value [2, 6]?
A: BDL (below detectable limits (1 μg/g rat; 0.2 μg/g monkey))

Q: And the “Mean Concentration SEQ ID NO: 1, Heart” value [2, 6]?
A: 1.5 µg/g

Q: What about the “Mean Concentration SEQ ID NO: 1, Kidney” value [2, 6] of the same substance?
A: 31.1 µg/g

Q: What about the “Mean Concentration SEQ ID NO: 1, Liver” value [2, 6] of the same substance?
A: 19.7 µg/g

Q: And the “Mean Concentration SEQ ID NO: 1, Lung” value [2, 6]?
A: 1.6 µg/g

Q: What about the “Mean Concentration SEQ ID NO: 1, Spleen” value [2, 6] of the same substance?
A: 2.6 µg/g

Q: What about the “Mean Concentration total metabolites (n + 1 through n − 13), Bone Marrow” value [2, 6] of the same substance?
A: 3.5 µg/g

Q: And the “Mean Concentration total metabolites … Brain” value [2, 6]?
A: BDL (below detectable limits (1 μg/g rat; 0.2 μg/g monkey))

Q: What about the “Mean Concentration total metabolites … Heart” value [2, 6] of the same substance?
A: 4.2 µg/g

Q: What about the “Mean Concentration total metabolites … Kidney” value [2, 6] of the same substance?
A: 88.1 µg/g

Q: What about the “Mean Concentration total metabolites … Liver” value [2, 6] of the same substance?
A: 47.9 µg/g

Q: And the “Mean Concentration total metabolites … Lung” value [2, 6]?
A: 2.3 µg/g

Q: And the “Mean Concentration total metabolites … Spleen” value [2, 6]?
A: 7.8 µg/g

Q: And the “Mean Concentration SEQ ID NO: 1, Bone Marrow” value [2, 7]?
A: 3.6 µg/g

Q: And the “Mean Concentration SEQ ID NO: 1, Brain” value [2, 7]?
A: BDL (below detectable limits (1 μg/g rat; 0.2 μg/g monkey))

Q: And the “Mean Concentration SEQ ID NO: 1, Heart” value [2, 7]?
A: BDL (below detectable limits (1 μg/g rat; 0.2 μg/g monkey))

Q: And the “Mean Concentration SEQ ID NO: 1, Kidney” value [2, 7]?
A: 129.5 µg/g

Q: And the “Mean Concentration SEQ ID NO: 1, Liver” value [2, 7]?
A: 38.1 µg/g

Q: What about the “Mean Concentration SEQ ID NO: 1, Lung” value [2, 7] of the same substance?
A: 2.1 µg/g
